# Values quoted from earlier work in patent publication US12527811B2, “Defibrotide for the prevention and treatment of cytokine release syndrome and neurotoxicity associated with immunodepletion” (priority 2018, dated 2026).
# pKd: −log10 of the molar value. Like-named read-outs stand apart in the source and are kept apart here.
# Tests used:
# IL-6R = molecular target: T1, IL-6R (Homo sapiens, UniProt P08887); conditions: read-out: affinity (Kd) for IL-6R; cited from earlier work
# T1 sequence (P08887 20-468): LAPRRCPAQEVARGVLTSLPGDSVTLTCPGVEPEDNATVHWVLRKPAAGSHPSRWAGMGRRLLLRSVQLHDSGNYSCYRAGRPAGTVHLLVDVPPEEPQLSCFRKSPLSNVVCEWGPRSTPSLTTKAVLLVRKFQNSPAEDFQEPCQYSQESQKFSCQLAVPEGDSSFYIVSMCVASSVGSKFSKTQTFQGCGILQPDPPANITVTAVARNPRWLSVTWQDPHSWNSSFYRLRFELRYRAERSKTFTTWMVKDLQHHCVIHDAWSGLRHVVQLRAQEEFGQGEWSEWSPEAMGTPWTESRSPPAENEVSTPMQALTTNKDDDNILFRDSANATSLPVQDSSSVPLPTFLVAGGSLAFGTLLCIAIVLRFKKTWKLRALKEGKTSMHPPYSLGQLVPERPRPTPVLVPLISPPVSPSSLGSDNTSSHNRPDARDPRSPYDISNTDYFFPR
# [1] = in vivo; cited from earlier work
# IL-6 = IL-6 (Homo sapiens, UniProt P05231); conditions: cited from earlier work
# [2] = ZUMA-1, one hundred and one adult patients with refractory aggressive B-cell NHL; cited from earlier work
# [3] = JULIET, ninety-three adult patients with relapsed or refractory DLBLC; cited from earlier work
# IL-6, sequence (P05231 30-212): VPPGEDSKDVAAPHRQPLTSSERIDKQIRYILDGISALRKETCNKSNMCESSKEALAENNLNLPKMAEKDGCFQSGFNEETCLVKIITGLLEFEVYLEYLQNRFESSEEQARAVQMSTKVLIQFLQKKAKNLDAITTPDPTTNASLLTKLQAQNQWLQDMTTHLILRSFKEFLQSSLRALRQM
substance,measurement,setting,value
IL-6: cytokine that binds IL-6R,pKd,IL-6R,~9.00
siltuximab,effect on CRS symptoms,[1],rapid reversal of CRS symptoms in most patients
same,pKd,IL-6,~12.00
Axicabtagene ciloleucel [Axi-cel],rate of grade>3 CRES,[2],28%
same,rate of grade>3 CRS,[2],13%
tisagenlecleucel,rate of grade>3 CRES,[3],12%
same,rate of grade>3 CRS,[3],22%
tocilizumab [reference compound],pKd,IL-6R,8.60
